Results as given in US10434134B2, “Peptide treatment for inflammation and fibrosis” (The Regents of the University of California, priority 2015, dated 2019).
Where a SMILES comes first, the peptide text is derived from it. Where no end group is shown, it is not given here. [ ]: non-standard residue; d: D form. Mpa = O=C(O)CCS

Assays:
[1] = Plasma levels of peptide and MPR-intermediate after IV PEGylated-peptide 361332; format: in vivo; conditions: CD-1 mouse, n = 1
Excerpt: Studies using the PEGylated-peptide 361332 are provided
Levels of Peptide and MPR-Intermediate in Plasma Samples

[2] = test system: Mouse Activated Liver Myofibroblasts; assay: Cell death of activated primary mouse liver myofibroblasts in culture; format: cell-based
[3] = test system: Human Activated Liver Myofibroblasts; assay: Cell death of activated primary human liver myofibroblasts in culture; format: cell-based; set-up: concentration or dose not given beside the values
Excerpt: (§1) Assays were used in a step-wise manner to select the safest and most efficient peptides (including apoptosis assays in activated primary human liver myofibroblasts; cell-free caspase 8 activation assays; acute liver injury/fibrogenesis models; toxicology assays in highly differentiated, primary human hepatocyte cultures and in mice).

[4] = test system: primary mouse and human hepatocytes
Excerpt: as §1

[5] = Mouse toxicity (in vivo); conditions: for Mouse Toxicity (in vivo): 20 mg/kg
Excerpt: as §1

[6] = test system: CCl4-induced acute liver injury in mice; assay: Acute CCl4 liver injury and activation of liver myofibroblasts in mice (Example 1); format: in vivo, mouse; set-up: serum ALT: unit not given here; conditions: for minimizing acute liver injury and activation of myofibroblasts: compared with the lead PEG peptide
Method: FIG. 1. The therapeutic lead peptide inhibits the activation of liver myofibroblasts and liver injury that induces fibrosis following exposure to the human hepatotoxin CCl4. A single dose of CCl4 was administered to C/EBPβ-wt mice (4). Eight hours later, animals received an IP injection of the therapeutic lead peptide (5 μg of peptide linked to PEG). Animals were sacrificed at 30 hr after the CCl4 administration. The animals receiving only CCl4 had intense activation of myofibroblasts (as determined by α-SMA) (upper row) and severe liver injury (as assessed by standard clinical examination just before sacrifice); the lead peptide blocked the discoloration and granular appearance of severe liver injury. The livers of treated mice were similar to control (second row). The histopathology induced by CCl4 was activation of myofibroblasts (α-SMA), severe liver injury (H&E stain) with collapse of the architecture (Reticulin stain). The therapeutic PEG-30 kDa-peptide decreased both the activation of myofibroblasts and the injury to the liver.
To induce acute liver injury, a single dose of the human hepatotoxin Carbon Tetrachloride (CCl4) was administered to normal mice (4). Eight hours later, animals received an IP injection of the lead therapeutic PEG-30 kDa-peptide (5 μg of the peptide linked [peptide to PEG at 1:60] to the PEG-30 kDa). Animals were sacrificed after 30 hr, at the peak of hepatocyte death as measured by ALT (a clinical end-point used routinely in clinical practice and by the FDA in the evaluation of liver toxicity in human drug studies) (16). […] There was severe acute liver injury in animals receiving CCl4 but mild-to-moderate injury in animals receiving both CCl4 and the lead therapeutic compound (FIG. 1).

[7] = test system: CCl4-induced liver fibrosis in mice; assay: Chronic 16-wk CCl4 mouse model of liver fibrosis (Example 2); format: in vivo; conditions: for decrease of liver fibrosis / Liver fibrosis, quantification of the Sirius stain (percentage fibrosis/area): CCl4 16-wk; for decrease of liver fibrosis: 7 μg IP once per week from week-8; for Liver fibrosis, quantification of the Sirius stain (percentage fibrosis/area): 7 μg peptide linked to 420 μg PEG-30 kDa once a week from week-8, n=6/group
Method: FIGS. 2A-2B. High efficacy of the therapeutic PEG-30 kDa-peptides in a chronic mouse model of liver fibrosis. All groups of mice (except control) received CCl4 administration for 16-wk (n=6/group). The CCl4 treatment group received only the hepatotoxin, while the other groups also received the indicated therapeutic PEG-30 kDa-peptide (7 μg of peptide linked to 420 μg PEG-30 kDa once a week) starting at week-8. FIG. 2A. Liver fibrosis was determined by quantification of the Sirius stain (percentage fibrosis/area) as described (7; 25): control (0.02+/−0.01); lead peptide (0.8+/−0.7); alternate peptide 1 (2.1+/−1.0); alternate peptide 2 (3.5+/−1.2) and CCl4 (6.7+/−1.6%). P<0.0001 for lead peptide 1 and P<0.001 for alternate peptides 1 and 2. FIG. 2B. Liver fibrosis was detected histologically by the trichrome stain for liver fibrosis as it is the clinical standard. The control animals (receiving only vehicle control) had negligible fibrosis (stage 0-1/VI); animals receiving CCl4 for 16 weeks developed severe fibrosis (stage 5/VI or 6/VI; which would be clinically significant in patients); while animals receiving CCl4 for 16 weeks and also the lead PEG-30 kDa-peptide 1 starting at week-8 had minor fibrosis (stage 1-2/VI; which would not be clinically significant in patients).
The therapeutic lead PEG-peptides underwent a systematic analysis of efficacy and safety in a classical chronic liver fibrosis model (7; 15; 24; 38). CCl4 (a human hepatotoxin) was administered to mice for 16-wk as a classical model of liver fibrosis (7). The three selected therapeutic PEG-peptides were administered once a week IP (7 μg of peptide linked to PEG) starting at week 8, once severe liver fibrosis was already established. The efficacy of the three selected PEG peptides included quantitative analysis of liver fibrosis (7). CCl4 administration to mice for 16-wk induced liver cirrhosis (FIGS. 2A and 2B). […] This mimics the treatment given for several years to a patient with established severe liver fibrosis.
The Ac-Lys-D-Ala-D-Val-Asp-NH2 was administered IP (7 μg of peptide linked to PEG-30 kDa) once/week for an additional 4 or 8 weeks. The CCl4 administration continued for 4 or 8 weeks. The Ac-Lys-D-Ala-D-Val-Asp-NH2 peptide inhibited liver fibrosis by 8-fold.
The parent peptide inhibited liver fibrosis by only 2 to 3-fold.

[8] = test system: Bleomycin-induced lung fibrosis in C/EBPβ-wt mice; assay: Bleomycin mouse model of lung fibrosis, various administration routes (Example 11); format: in vivo; conditions: for decrease in lung fibrosis: days 10, 17 and 24
Method: C/EBPβ-wt mice received Bleomycin administration as described above. On day-10, once the fibrotic reaction is established, mice received i) PEG-30 kDa-Lys-DAla-DVal-Asp-NH2 intraperitoneally (IP) 10 μg of peptide linked to PEG, on days 10, 17 and 24); or ii) peptide PEG-30 kDa-Lys-DAla-DVal-Asp-NH2 by inhalation (mean particle size […]—which reaches efficiently the alveoli-, 800 μg of peptide on days 10, 17 and 24; specific inhalation parameters are shown in Table 2). The peptide was administered for less than 1 hour a day [on days 10, 17, and […]] via nose-only inhalation of the test material aerosol at a nominal concentration of 1.0 mg/L [800 μg/dose]; or iii) peptide PEG-30 kDa-Lys-DAla-DVal-Asp-NH2 by intratracheal instillation (40 μg of peptide on days 10, 17 and 24).
Control groups received sterile water instead of Bleomycin; peptide IP; peptide by inhalation; or peptide by intratracheal instillation. Animals were sacrificed on day 27. The left lung was inflated with fixative, analyzed by trichrome stain and quantified in its entirety by the Odyssey Visualization microscopy software protocol to minimize analytical errors as described previously (Ramamoorthy et al., 2009, American Journal of Physiology, Endocrinology and Metabolism 297: e392-401). The right lung was snap frozen in liquid nitrogen and used for IMH, immunoblots and qRT-PCR.

[9] = liver, 30 hr after CCl4, single IP 5 μg at 8 hr

**Q.** For CC(C)[C@@H](NC(=O)[C@@H](C)NC(=O)[C@H](CCCCN)NC(=O)CCS)C(=O)N[C@@H](CC(=O)O)C(N)=O [Mpr-Lys-DAla-DVal-Asp-NH2] ([Mpa]K[dA][dV]D-NH2), which “Conc. (ng/mL) in plasma” value ([1]; 4 hours after IV PEGylated-peptide 361332, 7.5 mg/kg peptide equivalent) is on record?
**A.** 1291 ng/mL

**Q.** What about the “Conc. (ng/mL) in plasma” value ([1]; 8 hours after IV PEGylated-peptide 361332, 7.5 mg/kg peptide equivalent) of the same compound?
**A.** 900 ng/mL

**Q.** And the “Conc. (ng/mL) in plasma” value ([1]; 24 hours after IV PEGylated-peptide 361332, 7.5 mg/kg peptide equivalent)?
**A.** 921 ng/mL

**Q.** And the “Conc. (ng/mL) in plasma” value ([1]; 48 hours after IV PEGylated-peptide 361332, 7.5 mg/kg peptide equivalent)?
**A.** 1523 ng/mL

**Q.** Which “Mouse Activated Liver Myofibroblasts Death Cell (%) [20 ng/ml]” value [2] does the source give for “Ac-Lys-Ala-Val-Asp-NH2 (Ac-KAVD-NH2) [Parent peptide, reference compound]” here?
**A.** 89.5%

**Q.** What about the “Human Activated Liver Myofibroblasts Death Cell (%)” value [3] of the same compound?
**A.** 80.9%

**Q.** And the “Hepatocyte Toxicity [20 ng/ml]” value [4]?
**A.** No toxicity

**Q.** And the “Mouse Toxicity (in vivo)” value [5]?
**A.** No:

**Q.** What about the “toxicity issues observed in mice” value ([5]; mouse, in vivo) of the same compound?
**A.** no toxicity issues

**Q.** Which results are given for “PEG-30 kDa-Lys-DAla-DVal-Asp-NH2 [Lead therapeutic peptide]”?
**A.** Mouse Activated Liver Myofibroblasts Death Cell (%) [20 ng/ml] [2]: 90.5%; Human Activated Liver Myofibroblasts Death Cell (%) [3]: 86.2%; Hepatocyte Toxicity [20 ng/ml] [4]: No toxicity; Mouse Toxicity (in vivo) [5]: No:; serum ALT ([6]; 30 hr after CCl4, single IP treatment (5 μg peptide linked to PEG-30 kDa) 8 hr after CCl4): 6,754+/−905; acute liver injury severity ([6]; CCl4 plus peptide, 30 hr): mild-to-moderate; expression of α-SMA in the liver (activated liver myofibroblasts) ([6]; CCl4 plus peptide, 30 hr): minor expression; IL-6 mRNA [6, 9]: normal; TNF-α mRNA, increase from control values [6, 9]: 4 fold; albumin mRNA, decrease from control values [6, 9]: 2 fold; decrease of liver fibrosis [7]: > 8 fold; Liver fibrosis, quantification of the Sirius stain (percentage fibrosis/area) [7]: 0.8+/−0.7%; Liver fibrosis stage, trichrome stain ([7]; CCl4 16 weeks, peptide starting at week-8): 1-2 /VI; inhibition in lung alveolar epithelial cell apoptosis ([8]; IP): ~60%; surfactant protein-C (SFPC) expression by quantitative IHC ([8]; IP): essentially normal; decrease in lung fibrosis ([8]; IP 10 μg of peptide linked to PEG): ~60%; lung inflammation as determined by the expression of IL-23R (marker of Th-17 cells) ([8]; all treatments (IP, inhalation, intratracheal)): decreased; improvement of Tidal Volume ([8]; all treatments (IP, intratracheal instillation, inhalation), 14-day treatment): > 35%; inhibition in lung alveolar epithelial cell apoptosis ([8]; inhalation): ~60%; surfactant protein-C (SFPC) expression by quantitative IHC ([8]; inhalation): essentially normal; decrease in lung fibrosis ([8]; inhalation 800 μg of peptide): ~60%; efficacy on lung fibrosis ([8]; intratracheal instillation 40 μg of peptide, days 10, 17 and 24 (therapeutic positive control)): outstanding efficacy; TGFβ1 by RT-PCR ([8]; three peptide formulations): decreased; collagen α 1 by RT-PCR ([8]; three peptide formulations): decreased

**Q.** With “Peg-30kDa-Lys-Ala-DVal-Asp-NH2 [Alternate therapeutic peptide 2]” as the compound, how does the “Mouse Activated Liver Myofibroblasts Death Cell (%) [20 ng/ml]” value [2] read?
**A.** 57.1%

**Q.** What about the “Human Activated Liver Myofibroblasts Death Cell (%)” value [3] of the same compound?
**A.** 72.3%

**Q.** What about the “Hepatocyte Toxicity [20 ng/ml]” value [4] of the same compound?
**A.** No toxicity

**Q.** What about the “minimizing acute liver injury and activation of myofibroblasts” value [6] of the same compound?
**A.** performed similarly to the lead PEG peptide

**Q.** What about the “decrease of liver fibrosis” value [7] of the same compound?
**A.** ~2 fold

**Q.** And the “Liver fibrosis, quantification of the Sirius stain (percentage fibrosis/area)” value [7]?
**A.** 3.5+/−1.2%

**Q.** What does the source list for “Peg-30kDa-Lys-DAla-Val- Asp-NH2 [Alternate therapeutic peptide 1]”?
**A.** Mouse Activated Liver Myofibroblasts Death Cell (%) [20 ng/ml] [2]: 79.9%; Human Activated Liver Myofibroblasts Death Cell (%) [3]: 67.9%; Hepatocyte Toxicity [20 ng/ml] [4]: No toxicity; minimizing acute liver injury and activation of myofibroblasts [6]: performed similarly to the lead PEG peptide; decrease of liver fibrosis [7]: ~3 fold; Liver fibrosis, quantification of the Sirius stain (percentage fibrosis/area) [7]: 2.1+/−1.0%

**Q.** For [dK]AV[dD]-NH2, which “Human Activated Liver Myofibroblasts Death Cell (%)” value [3] is on record?
**A.** 44.0%

**Q.** For [dK]A[dV]D-NH2, which “Human Activated Liver Myofibroblasts Death Cell (%)” value [3] is on record?
**A.** 30.6%
